Literature values, collected in EP4729055A1, “TREATMENT OF DISORDERS USING SPHINGOSINE-1-PHOSPHATE RECEPTOR MODULATORS” (The Provost, Fellows, Foundation Scholars, & the other …, priority 2024, dated 2026).

For CCCCCCCCc1ccc(CCC(N)(CO)CO)cc1 [fingolimod, 2-Amino-2-[2-(4-octylphenyl)ethyl]propane-1,3-diol], the “log P” value is given as 5.5.
